Laboratory results taken from the supplement of paper PMC10307832.

Columns and labels:
Test in all cases: relative viability (nuclei count vs DMSO), 5 days (fraction); higher = more cells survive
Vorinostat + Lapatinib = compound: O=C(CCCCCCC(=O)Nc1ccccc1)NO [Vorinostat] + CS(=O)(=O)CCNCc1ccc(-c2ccc3ncnc(Nc4ccc(OCc5cccc(F)c5)c(Cl)c4)c3c2)o1 [Lapatinib] (partner 2 µM)
Method in brief: (§1)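 Cells from lung cancer lines were seeded into 1536-well plates and, one day later, dosed by pin tool. Treatments were either a single drug or a fixed dose of an anchor drug with five library-drug doses (not always all listed) in √10 steps. After 5 days, nuclei were stained in a one-step fixation (final 0.05% Triton X-100, 1% formaldehyde, 1 ug/ml Hoechst) and counted on 4× images, and relative viability is the treated-to-vehicle nuclei ratio, as the median of duplicate plates.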

Vorinostat + Trametinib = compound: O=C(CCCCCCC(=O)Nc1ccccc1)NO [Vorinostat] + CC(=O)Nc1cccc(-n2c(=O)n(C3CC3)c(=O)c3c(Nc4ccc(I)cc4F)n(C)c(=O)c(C)c32)c1 [Trametinib] (partner 0.02 µM)
Method in brief: as §1

Vorinostat + Pemetrexed = compound: O=C(CCCCCCC(=O)Nc1ccccc1)NO [Vorinostat] + Nc1nc2[nH]cc(CCc3ccc(C(=O)N[C@@H](CCC(=O)O)C(=O)O)cc3)c2c(=O)[nH]1 [Pemetrexed] (partner 0.2 µM)
Method in brief: as §1

Vorinostat + Luminespib = compound: O=C(CCCCCCC(=O)Nc1ccccc1)NO [Vorinostat] + CCNC(=O)c1noc(-c2cc(C(C)C)c(O)cc2O)c1-c1ccc(CN2CCOCC2)cc1 [Luminespib] (partner 0.01 µM)
Method in brief: as §1

Row | Cell Line | relative viability (Vorinostat + Lapatinib; first compound 0.253 µM) | relative viability (Vorinostat + Lapatinib; first compound 0.8 µM) | relative viability (Vorinostat + Lapatinib; first compound 2.53 µM) | relative viability (Vorinostat + Lapatinib; first compound 8 µM) | relative viability (Vorinostat + Trametinib; first compound 0.253 µM) | relative viability (Vorinostat + Trametinib; first compound 0.8 µM) | relative viability (Vorinostat + Trametinib; first compound 2.53 µM) | relative viability (Vorinostat + Trametinib; first compound 8 µM) | relative viability (Vorinostat + Pemetrexed; first compound 0.253 µM) | relative viability (Vorinostat + Pemetrexed; first compound 0.8 µM) | relative viability (Vorinostat + Pemetrexed; first compound 2.53 µM) | relative viability (Vorinostat + Pemetrexed; first compound 8 µM) | relative viability (Vorinostat + Luminespib; first compound 0.253 µM) | relative viability (Vorinostat + Luminespib; first compound 0.8 µM) | relative viability (Vorinostat + Luminespib; first compound 2.53 µM) | relative viability (Vorinostat + Luminespib; first compound 8 µM)
1 | NCI-H1703 | 1.64 | 1.49 | 1.02 | 0.247 | – | – | – | – | – | – | – | – | – | – | – | –
2 | A549 | 1.02 | 0.572 | 0.168 | 0.0602 | – | – | – | – | – | – | – | – | – | – | – | –
3 | HCC-366 | 1.16 | 0.741 | 0.0772 | 0.0322 | 0.412 | 0.333 | 0.062 | 0.0267 | 0.169 | 0.174 | 0.0867 | 0.0396 | – | – | – | –
4 | COR-L23 | 1.07 | 0.818 | 0.139 | 0.0646 | 0.79 | 0.447 | 0.159 | 0.0825 | 0.2 | 0.182 | 0.148 | 0.12 | 0.64 | 0.305 | 0.107 | 0.0643
5 | PC-14 | 0.36 | 0.251 | 0.135 | 0.0961 | 0.785 | 0.483 | 0.155 | 0.0461 | 0.162 | 0.177 | 0.14 | 0.0507 | 0.128 | 0.143 | 0.113 | 0.133
6 | SW 1573 | 1.17 | 1.07 | 0.824 | 0.133 | 0.709 | 0.596 | 0.357 | 0.0536 | 1.2 | 1.05 | 0.346 | 0.0659 | 0.212 | 0.381 | 0.222 | 0.0808
7 | LK-2 | 1.19 | 0.673 | 0.209 | 0.108 | 0.893 | 0.496 | 0.167 | 0.0907 | 0.278 | 0.262 | 0.138 | 0.036 | 0.207 | 0.171 | 0.152 | 0.132
8 | RERF-LC-KJ | 0.938 | 0.781 | 0.733 | 0.227 | 0.897 | 0.732 | 0.308 | 0.201 | 0.472 | 0.39 | 0.333 | 0.212 | 1.22 | 0.883 | 0.308 | 0.278
9 | NCI-H2347 | 0.988 | 1.04 | 0.766 | 0.341 | 0.242 | 0.327 | 0.226 | 0.203 | 0.427 | 0.41 | 0.416 | 0.299 | 0.608 | 0.333 | 0.221 | 0.192
10 | NCI-H1792 | 0.964 | 0.904 | 0.907 | 0.0753 | 0.292 | 0.257 | 0.145 | 0.0464 | 0.795 | 0.524 | 0.163 | 0.0208 | 0.533 | 0.388 | 0.295 | 0.144
11 | HOP-62 | 1.25 | 0.572 | 0.516 | 0.0547 | 0.509 | 0.406 | 0.16 | 0.0861 | 0.393 | 0.28 | 0.212 | 0.0997 | 0.942 | 0.904 | 0.396 | 0.103
12 | NCI-H1650 | 0.803 | 0.484 | 0.287 | 0.118 | 0.609 | 0.542 | 0.175 | 0.0883 | 0.307 | 0.341 | 0.29 | 0.18 | 0.2 | 0.178 | 0.171 | 0.184
13 | NCI-H1666 | 0.606 | 0.339 | 0.228 | 0.167 | 0.894 | 0.805 | 0.561 | 0.439 | 0.849 | 0.887 | 0.651 | 0.434 | 1.16 | 0.894 | 0.477 | 0.339
14 | HCC-78 | 0.705 | 0.455 | 0.249 | 0.155 | 0.774 | 0.495 | 0.201 | 0.181 | 0.888 | 0.852 | 0.875 | 0.868 | – | – | – | –
15 | HCC-44 | 1.03 | 0.985 | 0.508 | 0.111 | 1.11 | 0.968 | 0.91 | 0.286 | 0.663 | 0.683 | 0.628 | 0.485 | 1.23 | 0.804 | 0.205 | 0.141
16 | BEN | 0.819 | 0.379 | 0.151 | 0.0751 | 0.928 | 0.659 | 0.367 | 0.149 | 0.712 | 0.572 | 0.474 | 0.145 | 0.454 | 0.176 | 0.223 | 0.0986
17 | HCC-15 | 0.941 | 0.852 | 0.569 | 0.129 | 0.377 | 0.338 | 0.147 | 0.0834 | 0.219 | 0.216 | 0.172 | 0.099 | 0.526 | 0.565 | 0.361 | 0.148
18 | NCI-H1395 | 1.26 | 0.906 | 0.671 | 0.371 | 1.23 | 0.964 | 0.777 | 0.412 | 0.733 | 0.746 | 0.533 | 0.321 | 0.912 | 0.829 | 0.643 | 0.346
19 | NCI-H2009 | 1.06 | 0.503 | 0.329 | 0.133 | 0.336 | 0.311 | 0.237 | 0.119 | 0.993 | 0.955 | 0.666 | 0.131 | 1.04 | 0.935 | 0.752 | 0.144
20 | UMC-11 | 1.05 | 0.238 | 0.137 | 0.0786 | 0.845 | 0.245 | 0.0839 | 0.0678 | 0.756 | 0.453 | 0.119 | 0.0862 | 1.03 | 0.566 | 0.149 | 0.108
21 | HARA | 0.849 | 0.682 | 0.237 | 0.112 | 1.06 | 0.576 | 0.18 | 0.0921 | 0.239 | 0.217 | 0.205 | 0.125 | 0.693 | 0.689 | 0.118 | 0.053
22 | LC-2-ad | 0.924 | 0.67 | 0.253 | 0.0672 | 0.936 | 0.776 | 0.435 | 0.221 | 0.273 | 0.268 | 0.263 | 0.19 | 1.11 | 0.918 | 0.367 | 0.208
